Reference: patent US11298333B1, “Methods of reducing the risk of cardiovascular events in a subject” (Amarin Pharmaceuticals Ireland Limited, priority 2018, dated 2022)

Tests used:
[1] = test system: TG, non-HDL-C, LDL-C, HDL-C, apo B, hsCRP; experiment: REDUCE-IT: fasting lipid, lipoprotein and inflammatory biomarkers over time; assay type: in vivo, human; conditions: Year 2; ITT
Experimental: Fasting Lipid Profile: The fasting lipid panel included: TG, TC, LDL-C, HDL-C, non-HDL-C, and VLDL-C. At all visits, LDL-C was calculated using the Friedewald equation. At Visit 1 and Visit 1.1 direct LDL-C were used if at the same visit TG >400 mg/dL (4.52 mmol/L). These LDL-C values were used for the evaluation of the LDL-C inclusion criterion (LDL-C qualifying measurements for randomization) and for the assessment of changes in the statin therapy when LDL-C was not at goal. […] In addition, irrespective of the TG levels, at Visit 2 (0 Months of Follow-up, baseline) and at Visit 4 (12 Months of Follow-up), LDL-C were measured by preparative ultracentrifugation. […] Hopkins LDL-C was calculated for each visit. […]
The fasting lipid panel was tested at Screening (Visit 1 or Visit 1.1), Randomization visit (Visit 2; Day 0), Visit 3 (Day 120; ˜4 Months) and all other follow-up visits including the last visit. For change from baseline to 1 year preparative ultracentrifugation measurements for LDL-C were analyzed, unless this value was missing. […] In addition, change from baseline to day 120 in LDL-C utilizing Friedewald's and Hopkins methods was analyzed, using the arithmetic mean of LDL-C obtained at Visit 2 (Day 0) and the preceding Visit 1 (or Visit 1.1). […] LDL-C according to Hopkins was calculated at each visit. […]

[2] = test system: statin-treated patients with a history of atherosclerosis or diabetes; experiment: REDUCE-IT Example 2: recurrent and total ischemic events (Andersen-Gill, Wei-Lin-Weissfeld); assay type: in vivo, human
Excerpt: The following study was a multi-center, placebo-controlled clinical trial the details of which are described above in Example 1, the REDUCE-IT design. […] Randomization was stratified by cardiovascular risk cohort (i.e., secondary or primary prevention), use of ezetimibe, and by geographic region.
The primary outcome for the study was total recurrent events consisting of the composite of cardiovascular death, nonfatal myocardial infarction, nonfatal stroke, coronary revascularization, or hospitalization for unstable angina. Recurrent event analyses were also performed for the key secondary endpoint, a composite of cardiovascular death, non-fatal myocardial infarction, or non-fatal stroke. For each of these composite endpoints, the effects of icosapent ethyl in the secondary and primary prevention strata were examined separately.
Demographic and baseline disease characteristics are presented using frequencies and percentages for categorical variables and medians with interquartile ranges for continuous variables. Between treatment group comparisons were derived using the chi-square test for categorical variables and Wilcoxon rank test for continuous variables. All clinical endpoint events used in the efficacy analyses were adjudicated by an independent Clinical Endpoint Committee (CEC) who were blinded to the treatment assignment. Since the primary efficacy endpoint was the time from randomization to the first occurrence of any component of the composite endpoint, and recurrence of such events within each patient is possible, a pre-specified analysis using a Cox proportional-hazard with the counting-process formulation of Andersen and Gill was performed to model the first and all recurrent cardiovascular events. Hazard ratios (HR) and corresponding 95% confidence intervals (CI) are reported from this model. In addition, as a marginal model and an extension of survival models based on the Cox proportional hazard model, the modified Wei-Lin-Weissfeld (WLW) method for analysis of recurrent events in the presence of deaths was carried out as a supportive analysis. In addition, as pre-specified, a recurrent event analysis using the Andersen-Gill and Wei-Lin-Weissfeld methods were carried out for the individual primary event components other than CV death. Though not pre-specified, additional recurrent event analyses were performed for the key secondary endpoint, which is a composite of CV death, non-fatal MI, or non-fatal stroke, and for the primary endpoint and the key secondary endpoint in the primary and secondary prevention strata to explore further the consistency of clinical benefit of icosapent ethyl. In subgroup analyses of the two cardiovascular risk strata (i.e., primary and secondary prevention), site-level discrepancies in cardiovascular risk group assignment occurring at entry and detected during the study (1.8%) were adjusted to conform with documented medical history data prior to randomization. All efficacy analyses were performed according to the intention-to-treat principle. All tests were based on a 2-sided nominal significance level of 5% with no adjustments for multiple comparisons.

[3] = without adjusting for stratification differences
[4] = without adjustment for stratification differences

CC/C=C\C/C=C\C/C=C\C/C=C\C/C=C\CCCC(=O)OCC [Icosapent Ethyl, eicosapentaenoic acid ethyl ester]
Triglycerides median absolute change from baseline [1]: 85 mg/dL
First occurrence of primary composite endpoint: HR vs placebo ([2]; Wei-Lin-Weissfeld model): 0.75
Second occurrence of primary composite endpoint: HR vs placebo ([2]; Wei-Lin-Weissfeld model): 0.72
Total key secondary endpoints: HR, primary prevention stratum ([2]; adjusted stratification): 0.71
Total key secondary endpoints: HR, secondary prevention stratum ([2]; adjusted stratification): 0.70
Total primary endpoint events: HR, primary prevention stratum ([2]; adjusted stratification): 0.79
Total primary endpoint events: HR, secondary prevention stratum ([2]; adjusted stratification): 0.66
Cardiovascular deaths prevented per 100 patients treated for five years ([2]; in vivo): 1
Coronary revascularizations prevented per 100 patients treated for five years ([2]; in vivo): 8
Episodes of unstable angina prevented per 100 patients treated for five years ([2]; in vivo): 2
Myocardial infarctions prevented per 100 patients treated for five years ([2]; in vivo): 4
Relative risk reduction in total events for the primary composite efficacy outcome ([2]; in vivo): 32%
Strokes prevented per 100 patients treated for five years ([2]; in vivo): 1
Total key secondary endpoints: HR vs placebo ([2]; overall): 0.71
Total primary endpoint events: HR, primary prevention stratum [2, 3]: 0.86
Total primary endpoint events: HR, secondary prevention stratum [2, 3]: 0.65
Total key secondary endpoint events: HR, primary prevention [2, 4]: 0.78
Total key secondary endpoint events: HR, secondary prevention stratum [2, 4]: 0.69
